Tested on: citrus greasy spot
Assay: Test for citrus greasy spot control
Assay type: in vivo
Conditions: treatment amounts as printed in 250 gallons of water per acre, untreated control 0.510
Description: Test for citrus greasy spot control. Treatments consisted of the following amounts of compounds in 250 gallons of water per acre: […]

Copper
Disease Incidence: 0.050
